Tested on: MD-PBMCs
Experiment: IL-1β secretion
Format: cell-based, human

CCC[CH2][Sn][CH2]CCC [DBT, Dibutyltin]
Interleukin 1 beta secreted (donor F240, 24 h, 0.05 μM DBT + Caspase-1 inhibitor II 50 μM): 337 ± 7 pg/mL | Interleukin 1 beta secreted (donor F240, 24 h, 0.05 μM DBT + U0126 50 μM): 1840 ± 95 pg/mL | fold increase in IL-1β secretion (donor F240, 24 h, 0.05 μM DBT, absence of MEK inhibitor): 1.6 fold | Interleukin 1 beta secreted (donor F240, 24 h, 0.05 μM DBT, no inhibitor (CI experiment)): 757 ± 17 pg/mL | Interleukin 1 beta secreted (donor F240, 24 h, 0.05 μM DBT, no inhibitor (U0126 experiment)): 772 ± 54 pg/mL | Interleukin 1 beta secreted (donor F240, 24 h, 0.1 μM DBT + Caspase-1 inhibitor II 50 μM): 467 ± 12 pg/mL | Interleukin 1 beta secreted (donor F240, 24 h, 0.1 μM DBT + U0126 50 μM): 1447 ± 142 pg/mL | fold increase in IL-1β secretion (donor F240, 24 h, 0.1 μM DBT, absence of MEK inhibitor): 1.6 fold | Interleukin 1 beta secreted (donor F240, 24 h, 0.1 μM DBT, no inhibitor (CI experiment)): 916 ± 67 pg/mL | Interleukin 1 beta secreted (donor F240, 24 h, 0.1 μM DBT, no inhibitor (U0126 experiment)): 812 ± 109 pg/mL | fold increase in IL-1β secretion (donor F240, 24 h, 0.05 and 0.1 μM DBT, U0126 50 μM present): no DBT-induced increases | Interleukin 1 beta secreted (donor F242, 24 h, 0.05 μM DBT + Caspase-1 inhibitor II 50 μM): 495 ± 25 pg/mL | Interleukin 1 beta secreted (donor F242, 24 h, 0.05 μM DBT + U0126 50 μM): 759 ± 10 pg/mL | Interleukin 1 beta secreted (donor F242, 24 h, 0.05 μM DBT, no inhibitor (CI experiment)): 2752 ± 49 pg/mL | Interleukin 1 beta secreted (donor F242, 24 h, 0.05 μM DBT, no inhibitor (U0126 experiment)): 2230 ± 89 pg/mL | Interleukin 1 beta secreted (donor F242, 24 h, 0.1 μM DBT + Caspase-1 inhibitor II 50 μM): 354 ± 43 pg/mL | Interleukin 1 beta secreted (donor F242, 24 h, 0.1 μM DBT + U0126 50 μM): 312 ± 27 pg/mL | Interleukin 1 beta secreted (donor F242, 24 h, 0.1 μM DBT, no inhibitor (CI experiment)): 2874 ± 77 pg/mL | Interleukin 1 beta secreted (donor F242, 24 h, 0.1 μM DBT, no inhibitor (U0126 experiment)): 2172 ± 25 pg/mL | Interleukin 1 beta secreted (donor F244, 24 h, 0.05 μM DBT + BAY 11-7085): 1107 ± 14 pg/mL | Interleukin 1 beta secreted (donor F244, 24 h, 0.05 μM DBT + Caspase-1 inhibitor II 50 μM): 334 ± 11 pg/mL | Interleukin 1 beta secreted (donor F244, 24 h, 0.05 μM DBT + U0126 50 μM): 61 ± 23 pg/mL | fold increase in IL-1β secretion (donor F244, 24 h, 0.05 μM DBT, BAY 11-7085 present): 1.3 fold | fold increase in IL-1β secretion (donor F244, 24 h, 0.05 μM DBT, absence of NFκB inhibitor): 1.2 fold | Interleukin 1 beta secreted (donor F244, 24 h, 0.05 μM DBT, no inhibitor (BAY experiment)): 947 ± 29 pg/mL | Interleukin 1 beta secreted (donor F244, 24 h, 0.05 μM DBT, no inhibitor (CI experiment)): 1291 ± 34 pg/mL | Interleukin 1 beta secreted (donor F244, 24 h, 0.05 μM DBT, no inhibitor (U0126 experiment)): 1764 ± 62 pg/mL | Interleukin 1 beta secreted (donor F244, 24 h, 0.1 μM DBT + BAY 11-7085): 1067 ± 19 pg/mL | Interleukin 1 beta secreted (donor F244, 24 h, 0.1 μM DBT + Caspase-1 inhibitor II 50 μM): 302 ± 3 pg/mL | Interleukin 1 beta secreted (donor F244, 24 h, 0.1 μM DBT + U0126 50 μM): 143 ± 50 pg/mL | fold increase in IL-1β secretion (donor F244, 24 h, 0.1 μM DBT, BAY 11-7085 present): 1.3 fold | fold increase in IL-1β secretion (donor F244, 24 h, 0.1 μM DBT, absence of NFκB inhibitor): 1.3 fold | Interleukin 1 beta secreted (donor F244, 24 h, 0.1 μM DBT, no inhibitor (BAY experiment)): 1029 ± 59 pg/mL | Interleukin 1 beta secreted (donor F244, 24 h, 0.1 μM DBT, no inhibitor (CI experiment)): 1444 ± 43 pg/mL | Interleukin 1 beta secreted (donor F244, 24 h, 0.1 μM DBT, no inhibitor (U0126 experiment)): 2001 ± 184 pg/mL | Interleukin 1 beta secreted (donor F245, 24 h, 0.05 μM DBT + BAY 11-7085): 630 ± 60 pg/mL | Interleukin 1 beta secreted (donor F245, 24 h, 0.05 μM DBT + Caspase-1 inhibitor II 50 μM): 216 ± 19 pg/mL | Interleukin 1 beta secreted (donor F245, 24 h, 0.05 μM DBT + U0126 50 μM): 277 ± 8 pg/mL | fold increase in IL-1β secretion (donor F245, 24 h, 0.05 μM DBT, Caspase-1 inhibitor II 50 μM present): 1.4 fold | fold increase in IL-1β secretion (donor F245, 24 h, 0.05 μM DBT, absence of Caspase-1 inhibitor): 1.8 fold | Interleukin 1 beta secreted (donor F245, 24 h, 0.05 μM DBT, no inhibitor (BAY experiment)): 883 ± 66 pg/mL | Interleukin 1 beta secreted (donor F245, 24 h, 0.05 μM DBT, no inhibitor (CI experiment)): 1399 ± 20 pg/mL | Interleukin 1 beta secreted (donor F245, 24 h, 0.05 μM DBT, no inhibitor (U0126 experiment)): 1174 ± 49 pg/mL | Interleukin 1 beta secreted (donor F245, 24 h, 0.1 μM DBT + BAY 11-7085): 514 ± 80 pg/mL | Interleukin 1 beta secreted (donor F245, 24 h, 0.1 μM DBT + Caspase-1 inhibitor II 50 μM): 163 ± 10 pg/mL | Interleukin 1 beta secreted (donor F245, 24 h, 0.1 μM DBT + U0126 50 μM): 231 ± 14 pg/mL | fold increase in IL-1β secretion (donor F245, 24 h, 0.1 μM DBT, Caspase-1 inhibitor II 50 μM present): no increase | fold increase in IL-1β secretion (donor F245, 24 h, 0.1 μM DBT, absence of Caspase-1 inhibitor): 1.8 fold | Interleukin 1 beta secreted (donor F245, 24 h, 0.1 μM DBT, no inhibitor (BAY experiment)): 1206 ± 91 pg/mL | Interleukin 1 beta secreted (donor F245, 24 h, 0.1 μM DBT, no inhibitor (CI experiment)): 1375 ± 18 pg/mL | Interleukin 1 beta secreted (donor F245, 24 h, 0.1 μM DBT, no inhibitor (U0126 experiment)): 1246 ± 65 pg/mL | Interleukin 1 beta secreted (donor F247, 24 h, 0.05 μM DBT + SB202190): 1495 ± 134 pg/mL | fold increase in IL-1β secretion (donor F247, 24 h, 0.05 μM DBT, absence of p38 inhibitor): 7.2 fold | Interleukin 1 beta secreted (donor F247, 24 h, 0.05 μM DBT, no inhibitor (SB202190 experiment)): 1378 ± 246 pg/mL | Interleukin 1 beta secreted (donor F247, 24 h, 0.1 μM DBT + SB202190): 1329 ± 99 pg/mL | fold increase in IL-1β secretion (donor F247, 24 h, 0.1 μM DBT, absence of p38 inhibitor): 2.5 fold | Interleukin 1 beta secreted (donor F247, 24 h, 0.1 μM DBT, no inhibitor (SB202190 experiment)): 477 ± 60 pg/mL | fold increase in IL-1β secretion (donor F247, 24 h, 0.05 and 0.1 μM DBT, SB202190 present): no increases | Interleukin 1 beta secreted (donor F254, 24 h, 0.05 μM DBT + Caspase-1 inhibitor II 50 μM): 41 ± 9 pg/mL | Interleukin 1 beta secreted (donor F254, 24 h, 0.05 μM DBT, no inhibitor (CI experiment)): 521 ± 62 pg/mL | Interleukin 1 beta secreted (donor F254, 24 h, 0.1 μM DBT + Caspase-1 inhibitor II 50 μM): 17 ± 16 pg/mL | Interleukin 1 beta secreted (donor F254, 24 h, 0.1 μM DBT, no inhibitor (CI experiment)): 206 ± 2 pg/mL | Interleukin 1 beta secreted (donor F262, 24 h, 0.05 μM DBT + SB202190): 146 ± 8 pg/mL | Interleukin 1 beta secreted (donor F262, 24 h, 0.05 μM DBT, no inhibitor (SB202190 experiment)): 1100 ± 58 pg/mL | Interleukin 1 beta secreted (donor F262, 24 h, 0.1 μM DBT + SB202190): 134 ± 183 pg/mL | Interleukin 1 beta secreted (donor F262, 24 h, 0.1 μM DBT, no inhibitor (SB202190 experiment)): 1021 ± 61 pg/mL | Interleukin 1 beta secreted (donor F333, 24 h, 0.05 μM DBT + BAY 11-7085): 2518 ± 60 pg/mL | Interleukin 1 beta secreted (donor F333, 24 h, 0.05 μM DBT, no inhibitor (BAY experiment)): 3995 ± 161 pg/mL | Interleukin 1 beta secreted (donor F333, 24 h, 0.1 μM DBT + BAY 11-7085): 1960 ± 102 pg/mL | Interleukin 1 beta secreted (donor F333, 24 h, 0.1 μM DBT, no inhibitor (BAY experiment)): 2755 ± 84 pg/mL | Interleukin 1 beta secreted (donor F334, 24 h, 0.05 μM DBT + BAY 11-7085): 1035 ± 19 pg/mL | Interleukin 1 beta secreted (donor F334, 24 h, 0.05 μM DBT, no inhibitor (BAY experiment)): 2281 ± 53 pg/mL | Interleukin 1 beta secreted (donor F334, 24 h, 0.1 μM DBT + BAY 11-7085): 702 ± 82 pg/mL | Interleukin 1 beta secreted (donor F334, 24 h, 0.1 μM DBT, no inhibitor (BAY experiment)): 1468 ± 94 pg/mL | Interleukin 1 beta secreted (donor F372, 24 h, 0.05 μM DBT + SB202190): 348 ± 198 pg/mL | Interleukin 1 beta secreted (donor F372, 24 h, 0.05 μM DBT, no inhibitor (SB202190 experiment)): 2388 ± 322 pg/mL | Interleukin 1 beta secreted (donor F372, 24 h, 0.1 μM DBT + SB202190): 70 ± 14 pg/mL

— publication PMC5114172 (Journal of applied toxicology : JAT, 2016)
